Marks after values point to notes of the source that are not given here.
Key:
Type in all cases: in vivo
[1] = tested on: overnight fasted diabetic mice; assay: OGTT after multiple doses (6 consecutive days); conditions: for AUC in OGTT, % change from diabetic control / AUC in OGTT, Δ from diabetic control / Relative potency to sitagliptin (OGTT AUC) / AUC in OGTT, X (arithmetic mean): 50 mg/kg oral for six days; for AUC in OGTT, X (arithmetic mean): 2 h before glucose loading, AUC 0-120 min
Experimental: The tested compounds were given daily by oral gavage for 6 consecutive days. On day 6, the overnight fasted diabetic mice were pretreated with the 6th oral dose of the tested compounds. Then an oral glucose was loaded (2 g/kg/10 ml b.w.) 2 h after drug treatment. Blood glucose levels were determined using the Accu-check Go® (Roche Diagnostics, Michigan, USA). Samples were collected just before drug administration (Fasting Blood glucose), then 2 h after drug treatment and before glucose administration. Sample collection was continued at 20, 40, 60 and 120 min intervals after glucose loading.
• b. Group 1: Animals of this group are 14 h overnight-fasted normoglycemic mice received the vehicle (1% CMC-Na) at a dosing volume of 10 ml/kg/day for six consecutive days. • c. Group 2: Overnight-fasted diabetic mice received the vehicle (1% CMC-Na) at a dosing volume of 10 ml/kg/day for six consecutive days and served as a negative control. • d. Group 3: Overnight-fasted diabetic mice received sitagliptin at a dose of 50 mg/kg/day for six consecutive days and served as positive control. • e. Groups 4-17: Animals in these groups were overnight-fasted diabetic mice and received the tested compounds 128, 129, 130, 131, at a dose of 50 mg/kg/day for six consecutive days (volume of 10 ml/kg). Effect on Blood Glucose Level after Introduction of Food for One Hour (≈Meal Tolerance Test) Rational of the Test

STZ-diabetic mice = assay: Fasting blood glucose of diabetic mice during six days of treatment; conditions: for activity in controlling the rise of blood glucose levels in streptozotocin diabetic animals (in words) / control of fasting blood sugar compared with sitagliptin and the other compounds (in words): 50 mg/kg/day; for activity in controlling the rise of blood glucose levels in streptozotocin diabetic animals (in words): 6-day interval; for control of fasting blood sugar compared with sitagliptin and the other compounds (in words): 6 days; for Blood glucose level, fasting: 50 mg/kg/day oral, diabetic mice, mean ± SEM
Text: Our objective was to test the efficacy of the synthesized compounds for their potential to reduce blood glucose in STZ-diabetic mice. The synthesized compounds Nos. 128, 129, 130, 131,140, 142 were expected to act through the inhibition of the DPP-IV enzyme, which is responsible for the degradation of the entero-peptide GLP-I. In turn, GLP-I increases insulin and decreases glucagon release from the pancreatic islets (β and α-cells respectively). So this part of the project was designed to study the effect of the synthesized gliptin simulated compounds on blood glucose levels and their efficacy to increase glucose utilization in diabetic mice through: • a. The effect of the tested compounds in a dose of 50 mg/kg/day on fasting blood glucose blood levels of diabetic mice during six days of treatment. • b. Oral glucose tolerance test (OGTT) through oral glucose loading, 2 h after treatment with single oral dose (50 mg/kg) of the tested compounds in 14 h overnight fasted mice. • c. OGTT through oral glucose loading, 2 h after treatment with the 6th oral dose (50 mg/kg) of the tested compounds in 14 h overnight fasted mice. • d. The effect of the pretreatment with the tested compounds at an oral dose of 50 mg/kg on blood glucose levels, 3 h before and 3 h after meal feeding (feeding for one hour only, then food was removed immediately) in 14 h overnight-fasted diabetic mice.
(§1) Blood samples were collected from the tail vein and the blood glucose level was determined. Curves of blood glucose levels (mg/dL) versus the time intervals (min) were constructed and the area under the curves (AUCs) were calculated by the method of calculation embedded in GraphPad Prism® v. 5.0 (GraphPad Software, San Diego, Calif., USA). AUCs of the curves of the different groups were compared and tested for significance against control groups.
All data are presented as means±SEM. Statistical significance was evaluated by analysis of variance (ANOVA) followed by Tukey-Kramer's post hoc test for multiple comparisons. The “t” of the paired data was used to test the significance of the values of the fasting blood glucose compared to the values before treatment. Statistical significance was accepted at a level of p<0.05.

[2] = tested on: 14 h overnight fasted diabetic mice; assay: Oral glucose tolerance test (OGTT) after single dose; conditions: for glucose-lowering activity in OGTT compared with sitagliptin (in words): single dose 50 mg/kg; for Relative potency to sitagliptin (OGTT AUC) / AUC in OGTT, % change from diabetic control / AUC in OGTT, Δ from diabetic control / AUC in OGTT, X (arithmetic mean): single oral dose 50 mg/kg; for AUC in OGTT, X (arithmetic mean): AUC 0-120 min
Experimental: The oral glucose tolerance test was done in 14 h overnight fasted diabetic mice that were pretreated with a single oral dose of the tested compounds. Each of the tested agents was suspended in sodium carboxymethyl cellulose (CMC-Na) (1% in distilled water) and the dosing volume was adjusted to 10 ml/kg body weight per mouse. Then an oral glucose load was administered (2 g/kg) 2 h after drug treatment. Blood glucose levels were determined using the Accu-check Go® (Roche Diagnostics, Michigan, USA). Blood samples were collected just before drug administration (Fasting Blood glucose), then 2 h after drug treatment and before glucose loading. Blood samples collection was continued at 20, 40, 60 and 120 min intervals after glucose loading.
Animals were distributed between 17 groups (n=6) as follow: • a. Group 1: Animals were 14 h overnight-fasted normoglycemic mice and vehicle-treated (1% CMC-Na) at a dose of 10 ml/kg. • b. Group 2: Overnight fasted diabetic mice received the vehicle (1% CMC-Na) at a dosing volume of 10 ml/kg and served as a negative control. • c. Group 3: Overnight fasted diabetic mice received sitagliptin at a dose of 50 mg/kg in 1% CMC (in a volume of 10 ml/kg) and served as positive control. • a. Groups 4-17: Animals of these groups were overnight fasted diabetic mice received the tested compounds 128, 129, 130, 131, at a dose of 50 mg/kg in 1% CMC (volume of 10 ml/kg).

[3] = tested on: 14 h overnight-fasted diabetic mice; assay: Blood glucose after introduction of food for one hour (meal tolerance test); conditions: for antihyperglycemic activity after introduction of food (blood glucose rise and total AUC(0-180), in words): 50 mg/kg, 3 h before introduction of food; for Area under the curve AUC(0-180) after meal feeding: Day 1, 50 mg/kg oral, 3 hr pretreated
Experimental: The rational of this test was to determine the ability of the tested compounds to modulate glucose utilization after the introduction of food, after 3 h of drug administration to 14 h overnight-fasted mice (feeding with normal diet was done for 1 hr only, then food was removed during the remaining time of the test). This model is analogous to oral glucose tolerance tests (OGTT) used clinically to evaluate glycemic control, except that the meal was composed of fats, proteins and carbohydrates, and thus was a more realistic representation of the nutritional makeup of normal food. The main purpose is that during meal digestion, food contents e.g. carbohydrates, proteins and fats, were reported to cause an increase in the production of the GLP-I from the L-cells in ileum and colon. The produced GLP-I goes into circulation directly and affects insulin secretion from pancreatic β-cells. Both the GPL-I and insulin levels are expected to be high especially in the presence of a […] inhibitor.
Animals were Distributed Between 17 Groups (n=6) as Follows: • a. Group 1. Animals of this group were overnight-fasted normoglycemic mice and received the vehicle (1% CMC-Na) at a volume of 10 ml/kg/day for 4 consecutive days. • b. Group 2: overnight-fasted diabetic mice received the vehicle (1% CMC-Na) at a volume of 10 ml/kg/day for 4 consecutive days and served as a negative control. • c. Group 3: overnight fasted diabetic mice received sitagliptin at a dose of 50 mg/kg/day for 4 consecutive days in 1% CMC (in a volume of 10 ml/kg) and served as positive control. • d. Groups 4-19: Animals of these groups were overnight-fasted diabetic mice and received the tested compounds 128, 129, 130, 131,140, 142 at a dose of 50 mg/kg/day for 4 consecutive days in 1% CMC (volume of 10 ml/kg). Food was introduced for one hour only then food was removed immediately. Blood glucose levels were determined just before and 3 h after drug administration and then at 0, 60, 120 and 180 min after meal. Blood Sampling and Blood Glucose Determination
as §1

| SMILES | AUC in OGTT, % change from diabetic control [1] | AUC in OGTT, Δ from diabetic control [1] | Relative potency to sitagliptin (OGTT AUC) [1] | AUC in OGTT, X (arithmetic mean) [1] | activity in controlling the rise of blood glucose levels in streptozotocin diabetic animals (in words) (STZ-diabetic mice) | control of fasting blood sugar compared with sitagliptin and the other compounds (in words) (STZ-diabetic mice) | glucose-lowering activity in OGTT compared with sitagliptin (in words) [2] | Relative potency to sitagliptin (OGTT AUC) [2] | AUC in OGTT, % change from diabetic control ([2]; 2 h before glucose loading) | AUC in OGTT, Δ from diabetic control ([2]; 2 h before glucose loading) | AUC in OGTT, X (arithmetic mean) ([2]; 2 h before glucose loading) | antihyperglycemic activity after introduction of food (blood glucose rise and total AUC(0-180), in words) [3] | Area under the curve AUC(0-180) after meal feeding [3] | Blood glucose level, fasting (STZ-diabetic mice; Day 4) | Blood glucose level, fasting (STZ-diabetic mice; Day 5) | Blood glucose level, fasting (STZ-diabetic mice; Day 6) | relative potency in OGTT compared with sitagliptin (in words) ([1]; 6 consecutive days, 50 mg/kg) | control of fasting blood sugar compared with sitagliptin and the other compounds (in words) (STZ-diabetic mice; listed as 131) | reduction in the total AUC compared to the diabetic control mice ([2]; single dose, 2 h before glucose loading, AUC 0-120) |
| --- | --- | --- | --- | --- | --- | --- | --- | --- | --- | --- | --- | --- | --- | --- | --- | --- | --- | --- | --- |
| O=C(NCCC(=O)N1CCn2c(nnc2C(F)(F)F)C1)c1cccc(Cl)c1 [GLP-129] | −11.76% | -6197 mg·min/dL | 0.31 | 46458 mg·min/dL | significant activity | comparable to that of sitagliptin | less potent than sitagliptin | 0.45 | −10.93% | -5585 mg·min/dL | 45480 mg·min/dL | significant antihyperglycemic activity | 73248 ± mg · dL^−1 · min | – | – | – | – | – | – |
| O=C(NCC(=O)N1CCn2c(nnc2C(F)(F)F)C1)c1cccc(Cl)c1 [GLP-128] | −11.93% | -6287 mg·min/dL | 0.32 | 46368 mg·min/dL | significant activity | least effective | higher glucose-lowering activity than sitagliptin | 1.2 | −29.15% | -14887 mg·min/dL | 36178* mg · dL^−1 · min | significant antihyperglycemic activity | 69336 ± mg · dL^−1 · min | 195.00 ± 27.49 mg/dL | 200.60 ± 23.21 mg/dL | 188.60 ± 15.86 mg/dL | – | – | – |
| O=C(NCC(=O)N1CCn2c(nnc2C(F)(F)F)C1)c1ccc(Cl)cc1 [GLP-131] | −49.59% | -26113 mg·min/dL | 1.31 | 26542* mg · dL^−1 · min | significant activity | most consistent and extended activities | higher glucose-lowering activity than sitagliptin | 1.52 | −36.88% | -18835 mg·min/dL | 32230* mg · dL^−1 · min | significant antihyperglycemic activity | 56340 ± mg · dL^−1 · min | – | – | – | comparable or higher relative potency than sitagliptin | comparable to that of sitagliptin | – |
| N[C@@H](CC(=O)N1CCn2c(nnc2C(F)(F)F)C1)Cc1cc(F)c(F)cc1F [Sitagliptin, sitagliptin, reference compound] | −37.85% | -19932 mg·min/dL | 1 | 32723 mg·min/dL | – | – | – | 1 | −24.20% | -12362 mg·min/dL | 38703* mg · dL^−1 · min | significant antihyperglycemic activity | 51776 ± mg · dL^−1 · min | – | – | – | – | – | 24.2% |

Source: patent publication US10894794B1, “Substituted [1,2,4]triazolo[4,3-a]pyrazines as antidiabetics” (King Abdulaziz University, priority 2019, dated 2021)
